Measured values: patent publication EP0350948B1, “Porphyrin derivatives” (TOYOHAKKA KOGYO KABUSHIKI KAISHA, priority 1988, dated 1990)

Assays:
[1] = system: nitrosoamine-induced pancreatic cancer; experiment: in vivo hemorrhagic necrosis effect; set-up: species or system hamsters; key to Hemorrhagic necrosis effect: four scales of G4, G3, G2 and G1; four scales of G4, G3, G2 and G1; four scales of G4, G3, G2 and G1; four scales of G4, G3, G2 and G1; details: for Hemorrhagic necrosis effect: intensity of hemorrhagic necrosis at 24 hours following i.v. administration, and pathological study; for photograph of a cancer mass (Fig. 2) / photograph of a cancer mass (Fig. 1): 24 hours after administration, Cn-Ga-DP-diAsp; for photograph of a cancer mass (Fig. 2): n = even numbers; for photograph of a cancer mass (Fig. 1): n = odd numbers
Protocol: Cancer bearing hamsters of Experiment 1 were i.v. administered the test substance C6-Ga-DP-diAsp (10) (10 mg/ml) which had been diluted with phosphate buffer at 25 mg/kg bodyweight and 12.5 mg/kg bodyweight respectively. The animals were exsanguinated and autopsied at 24 hours after administration, and observed.
The evaluation was based on the four scales of G4, G3, G2 and G1.

[2] = system: nitrosoamine-induced pancreatic cancer; experiment: laser irradiation to the extirpated organ (excited fluorescent spectrum, N2-PLS measurement), tumor to tissue ratio; format: in vivo, Golden hamsters; details: i.v. 25 mg/kg bodyweight, organs extirpated at 24 hours after administration
Protocol: Golden hamsters (males, 5 per group, bodyweight approximately 150 g) were implanted subcutaneously tumor cells of the nitrosoamine-induced pancreatic cancer. After 14 to 21 days following implantation, animals were intravenously (i.v.) administered the test substance EG-Ga-DP-diGly (10 mg/ml) which had been diluted with phosphate buffer at 25 mg/kg bodyweight. At 24 hours after administration, the organs including the tumor were extirpated, irradiated with N2-pulsed laser (N2, 337 nm, 2 ns, 400 - 1000 nm), and measured of excited fluorescent spectrum. The wavelengths of 600 - 900 nm were studied using the peak wavelength of NADH at 470 nm as a reference. (N2-PLS measurement). […] (Tumor to tissue ratio).
Excited fluorescent spectra of the organs extirpated at 24 hours after administration were measured, and the peak wavelength at 600 - 900 nm was calculated by setting the peak wavelength at 470 nm as the reference 1. As fluorescence in Mn, Fe and Cu complexes is not sufficiently intense as to enable N2-PLS measurement, the extraction method was applied to these compounds. At 24 hours following administration, the organs were extracted with an organic solvent (such as chloroform-methanol) via acetone powder, and the obtained extract was measured of UV or HPLC to calculate the tumor to tissue ratio.

| SMILES | Hemorrhagic necrosis effect [1] | tumor/tissue cancer/ kidney [2] | tumor/tissue cancer/ liver [2] | tumor/tissue cancer/ lung [2] | tumor/tissue cancer/ serum [2] | photograph of a cancer mass (Fig. 2) [1] | photograph of a cancer mass (Fig. 1) [1] |
| --- | --- | --- | --- | --- | --- | --- | --- |
| C=CC1=C(C)C2=Cc3c(C(C)OCCO)c(C)c4[n]3[Ga][n]3c(c(C)c(CCC(=O)NC(CC(=O)O)C(=O)O)c3=CC3=NC(=C4)C(C)=C3CCC(=O)NC(CC(=O)O)C(=O)O)=CC1=N2 (stereo not drawn) [(2) monoEG-Ga-DP-diAsp, 2-[1-(2-hydroxyethyloxy)ethyl]-4-ethenyl-Ga-deuteroporphynyl diaspartic acid] | G1 | 1.32 | 2.30 | 1.50 | – | – | – |
| COC(C)C1=C(C)C2=Cc3c(C(C)OC)c(C)c4[n]3[Ga][n]3c(c(C)c(CCC(=O)NC(CC(=O)O)C(=O)O)c3=CC3=NC(=C4)C(C)=C3CCC(=O)NC(CC(=O)O)C(=O)O)=CC1=N2 (stereo not drawn) [(4) C1-Ga-DP-diAsp, 2,4-bis(1-methoxyethyl)-Ga-deuteroporphynyl diaspartic acid] | G1 | 2.27 | 1.19 | 0.78 | 2.50 | – | – |
| CCOC(C)C1=C(C)C2=Cc3c(C(C)OCC)c(C)c4[n]3[Ga][n]3c(c(C)c(CCC(=O)NC(CC(=O)O)C(=O)O)c3=CC3=NC(=C4)C(C)=C3CCC(=O)NC(CC(=O)O)C(=O)O)=CC1=N2 (stereo not drawn) [(5) C2-Ga-DP-diAsp, 2,4-bis(1-ethoxyethyl)-Ga-deuteroporphynyl diaspartic acid] | G1 | 1.25 | 0.71 | 1.25 | 1.16 | hemorrhagic necrosis | – |
| CCCOC(C)C1=C(C)C2=Cc3c(C(C)OCCC)c(C)c4[n]3[Ga][n]3c(c(C)c(CCC(=O)NC(CC(=O)O)C(=O)O)c3=CC3=NC(=C4)C(C)=C3CCC(=O)NC(CC(=O)O)C(=O)O)=CC1=N2 (stereo not drawn) [(6) C3-Ga-DP-diAsp, 2,4-bis(1-propoxyethyl)-Ga-deuteroporphynyl diaspartic acid] | G2 | 14.44 | 2.95 | 3.42 | 5.91 | – | hemorrhagic necrosis |
| CC1=C(CCC(=O)NC(CC(=O)O)C(=O)O)C2=NC1=Cc1c(C)c(C(C)OC(C)C)c3[n]1[Ga][n]1c(c(C)c(CCC(=O)NC(CC(=O)O)C(=O)O)c1=C2)=CC1=NC(=C3)C(C)=C1C(C)OC(C)C (stereo not drawn) [(7) C3(iso)-Ga-DP-diAsp, 2,4-bis(1-isopropoxyethyl)-Ga-deuteroporphynyl diaspartic acid] | G2 | 3.03 | 2.63 | 2.33 | 1.54 | – | – |
| CCCCOC(C)C1=C(C)C2=Cc3c(C(C)OCCCC)c(C)c4[n]3[Ga][n]3c(c(C)c(CCC(=O)NC(CC(=O)O)C(=O)O)c3=CC3=NC(=C4)C(C)=C3CCC(=O)NC(CC(=O)O)C(=O)O)=CC1=N2 (stereo not drawn) [(8) C4-Ga-DP-diAsp, 2,4-bis(1-butoxyethyl)-Ga-deuteroporphynyl diaspartic acid] | G4 | 7.72 | 3.54 | 4.47 | 2.00 | hemorrhagic necrosis | hemorrhagic necrosis |
| CCCCCOC(C)C1=C(C)C2=Cc3c(C(C)OCCCCC)c(C)c4[n]3[Ga][n]3c(c(C)c(CCC(=O)NC(CC(=O)O)C(=O)O)c3=CC3=NC(=C4)C(C)=C3CCC(=O)NC(CC(=O)O)C(=O)O)=CC1=N2 (stereo not drawn) [(9) C5-Ga-DP-diAsp, 2,4-bis(1-pentyloxyethyl)-Ga-deuteroporphynyl diaspartic acid] | G4 | 6.58 | 4.07 | 3.89 | 0.89 | – | hemorrhagic necrosis |
| CCCCCCCOC(C)C1=C(C)C2=Cc3c(C(C)OCCCCCCC)c(C)c4[n]3[Ga][n]3c(c(C)c(CCC(=O)NC(CC(=O)O)C(=O)O)c3=CC3=NC(=C4)C(C)=C3CCC(=O)NC(CC(=O)O)C(=O)O)=CC1=N2 (stereo not drawn) [(11) C7-Ga-DP-diAsp, 2,4-bis(1-heptyloxyethyl)-Ga-deuteroporphynyl diaspartic acid] | G4 | 4.88 | 2.96 | 2.92 | 0.89 | – | hemorrhagic necrosis |
| CC1=C(CCC(=O)NC(CC(=O)O)C(=O)O)C2=NC1=Cc1c(C)c(C(C)OCCc3ccccc3)c3[n]1[Ga][n]1c(c(C)c(CCC(=O)NC(CC(=O)O)C(=O)O)c1=C2)=CC1=NC(=C3)C(C)=C1C(C)OCCc1ccccc1 (stereo not drawn) [(14) C8(Phenethyl)-Ga-DP-diAsp, 2,4-bis(1-phenethyloxyethyl)-Ga-deuteroporphynyl diaspartic acid] | G1 | 3.79 | 3.79 | 2.89 | 0.72 | – | – |
| CCCCCCCCCOC(C)C1=C(C)c2cc3[nH]c(cc4nc(cc5[nH]c(cc1n2)c(C)c5C(C)OCCCCCCCCC)C(C)=C4CCC(=O)NC(CC(=O)O)C(=O)O)c(CCC(=O)NC(CC(=O)O)C(=O)O)c3C.[Ga] (stereo not drawn) [(15) C9-Ga-DP-diAsp, 2,4-bis(1-nonyloxyethyl)-Ga-deuteroporphynyl diaspartic acid] | G2 | 3.54 | 2.07 | 3.40 | 1.12 | – | hemorrhagic necrosis |
| CC(C)=CCC/C(C)=C/COC(C)C1=C(C)C2=Cc3c(C(C)OC/C=C(\C)CCC=C(C)C)c(C)c4[n]3[Ga][n]3c(c(C)c(CCC(=O)NC(CC(=O)O)C(=O)O)c3=CC3=NC(=C4)C(C)=C3CCC(=O)NC(CC(=O)O)C(=O)O)=CC1=N2 (stereo not drawn) [(17) C10(Gera)-Ga-DP-diAsp, 2,4-bis(1-geranyloxyethyl)-Ga-deuteroporphynyl diaspartic acid] | G2 | 3.82 | 3.33 | 4.88 | 2.19 | – | – |
| CCCCCCCCCCCCOC(C)C1=C(C)C2=Cc3c(C(C)OCCCCCCCCCCCC)c(C)c4[n]3[Cu][n]3c(c(C)c(CCC(=O)NC(CC(=O)O)C(=O)O)c3=CC3=NC(=C4)C(C)=C3CCC(=O)NC(CC(=O)O)C(=O)O)=CC1=N2 (stereo not drawn) [(70) C12-Cu-DP-diAsp, 2,4-bis(1-dodecyloxyethyl)-Cu-deuteroporphynyl diaspartic acid] | G1 | – | – | – | – | – | – |
| CCCCCCCCCCCCOC(C)C1=C(C)C2=Cc3c(C(C)OCCCCCCCCCCCC)c(C)c4[n]3[Zn][n]3c(c(C)c(CCC(=O)NC(CC(=O)O)C(=O)O)c3=CC3=NC(=C4)C(C)=C3CCC(=O)NC(CC(=O)O)C(=O)O)=CC1=N2 (stereo not drawn) [(73) C12-Zn-DP-diAsp, 2,4-bis(1-dodecyloxyethyl)-Zn-deuteroporphynyl diaspartic acid] | G2 | – | – | – | – | – | – |
